Measurements reported in publication PMC7968329, “Triazoloacridone C-1305 impairs XBP1 splicing by acting as a potential IRE1α endoribonuclease inhibitor” (Cellular & Molecular Biology Letters, 2021).

Target: T1, IRE1α (Homo sapiens, UniProt O75460)
T1 construct: gene ERN1
Test: ADP-Glo luminescent kinase assay with purified IRE1
Format: biochemical

T1 sequence (O75460 19-977): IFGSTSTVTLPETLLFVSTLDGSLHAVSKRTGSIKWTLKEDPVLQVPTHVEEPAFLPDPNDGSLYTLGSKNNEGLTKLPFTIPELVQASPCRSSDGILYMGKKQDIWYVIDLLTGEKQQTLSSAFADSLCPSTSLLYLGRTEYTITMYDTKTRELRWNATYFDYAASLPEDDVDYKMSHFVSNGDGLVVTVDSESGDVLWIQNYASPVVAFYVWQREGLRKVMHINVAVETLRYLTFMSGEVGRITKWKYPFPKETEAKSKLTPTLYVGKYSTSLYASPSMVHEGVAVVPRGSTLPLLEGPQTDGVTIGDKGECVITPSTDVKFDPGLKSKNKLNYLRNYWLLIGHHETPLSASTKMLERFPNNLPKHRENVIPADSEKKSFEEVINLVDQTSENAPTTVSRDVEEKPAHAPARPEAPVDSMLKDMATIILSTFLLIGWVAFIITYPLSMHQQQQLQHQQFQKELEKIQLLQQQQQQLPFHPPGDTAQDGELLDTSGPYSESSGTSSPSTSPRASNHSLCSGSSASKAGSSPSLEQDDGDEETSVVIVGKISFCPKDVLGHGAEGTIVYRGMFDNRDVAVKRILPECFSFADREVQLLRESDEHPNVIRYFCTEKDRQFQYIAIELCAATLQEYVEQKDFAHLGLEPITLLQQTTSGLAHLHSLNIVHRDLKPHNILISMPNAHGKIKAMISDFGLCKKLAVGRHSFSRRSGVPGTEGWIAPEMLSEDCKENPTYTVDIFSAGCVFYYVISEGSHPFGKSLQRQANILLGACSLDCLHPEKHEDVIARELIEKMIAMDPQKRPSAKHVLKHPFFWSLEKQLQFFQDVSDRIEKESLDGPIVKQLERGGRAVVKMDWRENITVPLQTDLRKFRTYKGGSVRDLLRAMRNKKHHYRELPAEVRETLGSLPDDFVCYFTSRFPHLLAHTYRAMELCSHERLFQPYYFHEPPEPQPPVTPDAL

## Cc1cc(=O)oc2c(C=O)c(O)ccc12 [4µ8C, 7-Hydroxy-4-methyl-2-oxo-2H-chromene-8-carbaldehyde]
  IC50: 31.2 µM
